Source: ChEMBL document CHEMBL1201862, “PubChem BioAssay data set” (2004)
Active and inactive are the calls of the source.

How the values were obtained:
[1] = molecular target: T1, Replicative DNA helicase DnaB (Mycobacterium tuberculosis, UniProt P9WMR3); assay: DnaB intein splicing inhibitors, dose response, biochemical, cell-free fluorescence (AID 449749); assay type: functional
T1 sequence (P9WMR3 whole entry): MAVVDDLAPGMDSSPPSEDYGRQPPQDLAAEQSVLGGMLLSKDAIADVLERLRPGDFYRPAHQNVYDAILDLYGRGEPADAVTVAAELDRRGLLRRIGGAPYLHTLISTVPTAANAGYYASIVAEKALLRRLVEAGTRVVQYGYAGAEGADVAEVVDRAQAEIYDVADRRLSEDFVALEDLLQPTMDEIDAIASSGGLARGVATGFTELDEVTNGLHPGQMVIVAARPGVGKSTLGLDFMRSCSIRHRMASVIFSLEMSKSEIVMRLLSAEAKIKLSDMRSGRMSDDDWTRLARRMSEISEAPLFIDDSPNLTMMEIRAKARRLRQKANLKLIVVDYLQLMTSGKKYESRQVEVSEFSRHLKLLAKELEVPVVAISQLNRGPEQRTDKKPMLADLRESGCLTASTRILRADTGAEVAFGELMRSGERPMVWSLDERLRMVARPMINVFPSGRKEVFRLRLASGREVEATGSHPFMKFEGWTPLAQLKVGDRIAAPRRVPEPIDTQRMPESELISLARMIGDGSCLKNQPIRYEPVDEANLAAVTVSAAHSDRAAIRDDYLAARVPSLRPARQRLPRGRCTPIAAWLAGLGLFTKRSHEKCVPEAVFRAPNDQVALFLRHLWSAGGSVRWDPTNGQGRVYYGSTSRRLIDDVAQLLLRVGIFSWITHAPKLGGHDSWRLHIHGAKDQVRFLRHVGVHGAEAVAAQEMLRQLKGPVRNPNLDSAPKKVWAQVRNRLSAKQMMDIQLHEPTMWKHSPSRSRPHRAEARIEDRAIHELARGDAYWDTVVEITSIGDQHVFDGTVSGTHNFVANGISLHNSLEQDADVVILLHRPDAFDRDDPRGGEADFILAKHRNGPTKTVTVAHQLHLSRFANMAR

[2] = molecular target: T2, Protein RecA (Mycobacterium tuberculosis, UniProt P9WHJ3); assay: Fluorescence Cell-Free Homogeneous Dose Retest to Identify Inhibitors of RecA-Intein Splicing Activity. [Related pubchem assays (depositor defined):AID2097, AID2223, AID489010, AID492950]; assay type: functional
T2 sequence (P9WHJ3 whole entry): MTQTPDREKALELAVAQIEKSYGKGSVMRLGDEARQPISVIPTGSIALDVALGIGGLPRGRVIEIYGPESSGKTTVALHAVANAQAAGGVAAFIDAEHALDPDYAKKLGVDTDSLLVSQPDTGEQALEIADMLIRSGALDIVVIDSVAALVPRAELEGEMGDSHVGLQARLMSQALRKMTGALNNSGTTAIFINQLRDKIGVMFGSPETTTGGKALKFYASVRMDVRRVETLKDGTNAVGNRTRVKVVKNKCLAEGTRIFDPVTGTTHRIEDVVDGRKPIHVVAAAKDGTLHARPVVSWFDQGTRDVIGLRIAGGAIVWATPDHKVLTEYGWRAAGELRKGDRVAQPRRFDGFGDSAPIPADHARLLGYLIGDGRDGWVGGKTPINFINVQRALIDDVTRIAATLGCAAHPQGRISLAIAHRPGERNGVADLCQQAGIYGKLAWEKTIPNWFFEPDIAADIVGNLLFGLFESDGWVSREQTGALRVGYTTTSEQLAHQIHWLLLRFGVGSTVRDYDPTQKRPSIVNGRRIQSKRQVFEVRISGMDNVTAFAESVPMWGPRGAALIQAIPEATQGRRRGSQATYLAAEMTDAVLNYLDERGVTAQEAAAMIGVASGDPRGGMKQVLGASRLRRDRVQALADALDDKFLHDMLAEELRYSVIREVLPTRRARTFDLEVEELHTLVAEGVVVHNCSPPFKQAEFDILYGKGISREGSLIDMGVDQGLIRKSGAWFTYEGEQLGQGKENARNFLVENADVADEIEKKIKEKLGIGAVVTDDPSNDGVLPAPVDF

[3] = molecular target: T3, Rac GTPase-activating protein 1 (Homo sapiens, UniProt Q9H0H5); assay: MgcRacGAP GTPase-activating activity inhibitors, confirmation, biochemical, ADP Hunter fluorescence, primary and confirmatory (AID 624330); assay type: functional
T3 sequence (Q9H0H5 whole entry): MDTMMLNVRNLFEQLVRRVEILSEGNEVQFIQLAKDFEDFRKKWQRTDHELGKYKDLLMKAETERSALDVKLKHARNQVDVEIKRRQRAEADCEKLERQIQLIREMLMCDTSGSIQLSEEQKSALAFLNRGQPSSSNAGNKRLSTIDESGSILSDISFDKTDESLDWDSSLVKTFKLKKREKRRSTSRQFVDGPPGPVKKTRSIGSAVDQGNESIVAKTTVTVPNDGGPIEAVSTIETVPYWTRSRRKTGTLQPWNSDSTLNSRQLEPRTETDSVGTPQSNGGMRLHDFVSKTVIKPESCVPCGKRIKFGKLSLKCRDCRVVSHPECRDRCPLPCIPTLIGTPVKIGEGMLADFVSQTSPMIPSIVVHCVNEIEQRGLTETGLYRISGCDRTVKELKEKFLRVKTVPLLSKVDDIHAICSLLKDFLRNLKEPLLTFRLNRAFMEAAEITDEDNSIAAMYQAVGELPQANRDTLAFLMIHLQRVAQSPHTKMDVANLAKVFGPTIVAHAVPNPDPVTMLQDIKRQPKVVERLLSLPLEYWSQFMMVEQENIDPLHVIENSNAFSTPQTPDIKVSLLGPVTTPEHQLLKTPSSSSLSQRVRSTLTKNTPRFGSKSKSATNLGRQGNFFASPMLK

[4] = molecular target: Cytochrome P450 3A4 (Homo sapiens, UniProt P08684);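 also: CYP3A4 tested as one member of a cytochrome P450 panel screen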
Cytochrome P450 3A4, sequence (P08684 whole entry): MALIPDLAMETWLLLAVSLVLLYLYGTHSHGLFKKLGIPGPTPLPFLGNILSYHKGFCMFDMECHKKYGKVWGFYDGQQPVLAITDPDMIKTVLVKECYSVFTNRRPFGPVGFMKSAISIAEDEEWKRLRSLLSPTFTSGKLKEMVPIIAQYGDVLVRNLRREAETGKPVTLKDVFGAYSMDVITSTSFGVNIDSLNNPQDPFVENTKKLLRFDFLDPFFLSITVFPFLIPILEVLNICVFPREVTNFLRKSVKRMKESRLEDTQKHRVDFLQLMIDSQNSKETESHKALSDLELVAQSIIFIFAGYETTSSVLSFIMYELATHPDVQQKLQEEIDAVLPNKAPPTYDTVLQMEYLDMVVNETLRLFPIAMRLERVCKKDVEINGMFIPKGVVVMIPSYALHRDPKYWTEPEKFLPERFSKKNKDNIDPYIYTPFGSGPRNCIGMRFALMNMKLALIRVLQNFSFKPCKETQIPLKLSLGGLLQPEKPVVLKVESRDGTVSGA

[5] = molecular target: Cytochrome P450 2C9 (Homo sapiens, UniProt P11712)
Cytochrome P450 2C9, sequence (P11712 whole entry): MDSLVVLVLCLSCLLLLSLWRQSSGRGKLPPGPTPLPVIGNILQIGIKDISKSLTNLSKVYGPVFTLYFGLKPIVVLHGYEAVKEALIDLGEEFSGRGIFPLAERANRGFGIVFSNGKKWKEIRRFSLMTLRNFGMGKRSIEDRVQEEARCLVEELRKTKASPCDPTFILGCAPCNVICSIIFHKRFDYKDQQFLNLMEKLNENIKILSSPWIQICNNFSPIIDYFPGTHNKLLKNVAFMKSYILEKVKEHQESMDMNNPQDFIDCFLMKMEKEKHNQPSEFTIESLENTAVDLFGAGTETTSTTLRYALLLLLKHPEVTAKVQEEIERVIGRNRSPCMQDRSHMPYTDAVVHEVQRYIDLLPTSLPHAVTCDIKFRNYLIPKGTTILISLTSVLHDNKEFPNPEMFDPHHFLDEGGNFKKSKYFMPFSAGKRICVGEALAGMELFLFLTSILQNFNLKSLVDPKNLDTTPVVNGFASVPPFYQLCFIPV

[6] = molecular target: T4, Corticotropin-releasing factor receptor 2/Corticotropin-releasing factor-binding protein (Homo sapiens, UniProt P24387+Q13324); assay: activators of CRF receptor 2 with binding protein – uHTS hits, confirmation (AID 602473); assay type: functional; details: read-out: EC50_Mean
T4 sequence (Q13324 whole entry): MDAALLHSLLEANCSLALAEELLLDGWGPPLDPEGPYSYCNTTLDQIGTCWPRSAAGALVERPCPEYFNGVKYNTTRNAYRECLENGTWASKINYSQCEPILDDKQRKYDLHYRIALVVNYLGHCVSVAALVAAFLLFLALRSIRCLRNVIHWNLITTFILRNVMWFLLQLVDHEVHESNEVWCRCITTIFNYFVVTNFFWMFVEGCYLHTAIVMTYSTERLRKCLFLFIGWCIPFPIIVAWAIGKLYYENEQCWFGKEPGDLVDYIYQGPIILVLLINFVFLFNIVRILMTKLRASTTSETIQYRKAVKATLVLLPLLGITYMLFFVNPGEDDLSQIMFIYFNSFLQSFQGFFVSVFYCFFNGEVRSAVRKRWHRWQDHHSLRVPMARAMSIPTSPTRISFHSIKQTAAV
T4 sequence (P24387 whole entry): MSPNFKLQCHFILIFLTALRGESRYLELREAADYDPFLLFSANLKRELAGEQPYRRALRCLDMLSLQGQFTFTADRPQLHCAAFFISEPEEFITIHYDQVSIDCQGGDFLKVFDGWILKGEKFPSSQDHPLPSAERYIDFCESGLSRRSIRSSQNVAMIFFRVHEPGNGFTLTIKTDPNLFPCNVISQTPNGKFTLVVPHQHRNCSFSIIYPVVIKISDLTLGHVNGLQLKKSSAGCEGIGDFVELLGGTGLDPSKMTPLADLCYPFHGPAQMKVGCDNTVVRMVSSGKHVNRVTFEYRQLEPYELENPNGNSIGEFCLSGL

[7] = molecular target: T4, Corticotropin-releasing factor receptor 2/Corticotropin-releasing factor-binding protein; assay: Dose Response confirmation of uHTS hits for small molecule antagonists of the CRF-binding protein and CRF-R2 receptor complex.; assay type: functional; details: read-out: IC50_Mean
[8] = system: Streptococcus sp. 'group A'; assay: growth inhibition of control SK(-) GAS strain, dose response, counter-screen for streptokinase expression inhibitor project, luminescence, kanamycin, BacTiterGlo, confirmation (AID 1900); assay type: functional, organism-based
[9] = molecular target: T5, Streptokinase A (Streptococcus pyogenes serotype M1, UniProt P10520); assay: S. pyogenes streptokinase expression inhibitors, potency, dose response, plasminogen activation absorbance, OD405 (AID 1914); assay type: functional, Streptococcus pyogenes M1 GAS;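 also: secreted streptokinase activity via plasminogen activation per viability signal from cell pellet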
T5 sequence (P10520 whole entry): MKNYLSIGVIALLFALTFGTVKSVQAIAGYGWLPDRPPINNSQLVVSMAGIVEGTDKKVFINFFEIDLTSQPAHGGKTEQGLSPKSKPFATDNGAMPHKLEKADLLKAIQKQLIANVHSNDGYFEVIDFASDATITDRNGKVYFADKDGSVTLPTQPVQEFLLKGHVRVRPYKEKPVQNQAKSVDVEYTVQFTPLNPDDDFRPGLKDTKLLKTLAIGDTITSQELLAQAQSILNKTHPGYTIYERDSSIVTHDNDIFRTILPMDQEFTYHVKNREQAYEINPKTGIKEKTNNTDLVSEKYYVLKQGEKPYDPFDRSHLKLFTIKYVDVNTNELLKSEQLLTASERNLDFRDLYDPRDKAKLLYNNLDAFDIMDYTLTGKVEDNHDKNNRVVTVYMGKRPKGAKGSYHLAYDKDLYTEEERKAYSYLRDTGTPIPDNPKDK

[10] = system: Streptococcus; assay: Group A Streptococcus viability loss, dose response, counter-screen for streptokinase expression inhibitor project, luminescence, BacTiterGlo (AID 1915); assay type: functional, organism-based;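 also: potency for reduction of bacterial viability or growth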
[11] = molecular target: Cytochrome P450 2C19 (Homo sapiens, UniProt P33261); assay: Cytochrome panel assay with activity outcomes. Panel member name: p450-cyp2c19 Compounds with AC50 equal or less than 10 uM are considered active; assay type: functional; details: read-out: AC50
Cytochrome P450 2C19, sequence (P33261 whole entry): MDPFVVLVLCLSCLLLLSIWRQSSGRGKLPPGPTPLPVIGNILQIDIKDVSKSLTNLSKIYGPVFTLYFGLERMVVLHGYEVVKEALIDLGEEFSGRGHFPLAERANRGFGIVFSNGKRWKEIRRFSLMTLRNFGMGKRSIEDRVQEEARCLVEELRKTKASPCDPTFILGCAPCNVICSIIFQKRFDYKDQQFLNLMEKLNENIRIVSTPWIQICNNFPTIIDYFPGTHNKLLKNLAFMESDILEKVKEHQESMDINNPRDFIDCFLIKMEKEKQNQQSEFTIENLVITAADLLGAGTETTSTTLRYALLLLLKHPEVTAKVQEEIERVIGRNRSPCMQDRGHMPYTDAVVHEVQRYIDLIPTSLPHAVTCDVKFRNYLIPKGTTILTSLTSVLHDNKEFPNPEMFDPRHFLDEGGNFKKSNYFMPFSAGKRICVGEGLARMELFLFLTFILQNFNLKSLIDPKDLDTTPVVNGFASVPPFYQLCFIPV

## CCCc1n[nH]c2c1C(c1c[nH]nc1-c1ccc(F)cc1)C(C#N)=C(N)O2 (stereo unspecified)
[1]
  AC50: 2.08 µM (active)
[2]
  EC50: 1.54 µM (active)

## COc1ccc(CN2CCN(CCCCOc3ccc(Cl)cc3)CC2)c(OC)c1OC
[3]
  IC50: 71.4 µM (active)

## Cc1cc(-c2[nH]nc3c2C(c2ccsc2)C(C#N)=C(N)O3)c(C)s1 (stereo unspecified)
[1]
  AC50: 3.47 µM (active)
[2]
  EC50: 1.2 µM (active)

## CCN(CC(=O)NCc1ccc(F)cc1)C(=O)CN1CCN(c2ccc(OC)cc2)CC1
[3]
  IC50: 42.3 µM (active)

## CC1CN(CCCCN2C(=O)c3ccccc3C2=O)CC(C)O1 (stereo unspecified)
[3]
  IC50: 125 µM (active)

## O=c1c2ccccc2nc2n1C(CSc1ccc(F)cc1)CN2 (stereo unspecified)
[4]
  AC50: 31.6 µM (inconclusive)
[5]
  AC50: 39.8 µM (inconclusive)

## Cc1cccc(NC(=O)C2CC2c2ccccc2)c1C (stereo unspecified)
[6]
  EC50: > 53 µM (inactive)

## COc1ccc(NC(=O)CN(C)S(=O)(=O)c2ccc(Cl)cc2)c([N+](=O)[O-])c1
[4]
  AC50: 1.78 µM (inconclusive)

## Cc1ccc(-c2noc(-c3cc4ccccc4oc3=O)n2)cc1
[4]
  AC50: 3.55 µM (inconclusive)
[5]
  AC50: 6.31 µM (inconclusive)

## CCOc1ccc(N(CC(=O)NCC2CCCO2)C(=O)CCC(=O)Nc2nccs2)cc1 (stereo unspecified)
[7]
  IC50: > 47.1 µM (inactive)
[6]
  EC50: > 53 µM (inactive)

## COc1ccc([N+](=O)[O-])cc1N(CC(=O)NCCCOC(C)C)S(C)(=O)=O
[7]
  IC50: > 47.1 µM (inactive)
[6]
  EC50: > 53 µM (inactive)

## COc1ccc(/C=C2/CC/C(=C\c3ccc(OC)c(OC)c3OC)C2=O)c(OC)c1OC
[6]
  EC50: > 53 µM (inactive)

## c1ccc(-c2ccccc2OCCN2CCOCC2)cc1
[3]
  IC50: 111 µM (active)

## CCc1ccc(C2C(C#N)=C(N)C(C#N)(C#N)C3=CCC(C(C)(C)C)CC32)cc1 (stereo unspecified)
[8]
  EC50: 4.85 µM (active)
[9]
  EC50: 5.84 µM (active)
[10]
  EC50: > 150 µM (not active)
[1]
  AC50: > 120 µM (inactive)
[2]
  EC50: 3 µM (active)

## COc1ccc(-c2cc(C(=O)O)nc3ccc4ccccc4c23)cc1OC
[7]
  IC50: > 47.1 µM (inactive)
[6]
  EC50: > 53 µM (inactive)

## O=C(Oc1ccccc1)N1CCC[C@@]2(CCN(c3ncccn3)C2)C1
[4]
  AC50: 15.8 µM (inconclusive)

## OCCN1CCN(C(S)=Nc2cccc(C(F)(F)F)c2)CC1
[3]
  IC50: 126 µM (active)

## O=C(CSCc1ccccc1)Nc1cc([N+](=O)[O-])ccc1F
[7]
  IC50: > 47.1 µM (inactive)
[6]
  EC50: > 53 µM (inactive)

## CCCCC/C=C\C[C@H](O)/C=C\c1cccc(C[C@H](O)CCCCO)n1
[4]
  AC50: 6.31 µM (inconclusive)
[5]
  AC50: 20 µM (inconclusive)

## COc1ccc(NC(=O)C23CC4CC(C2)CC(n2cnc(Br)n2)(C4)C3)c(C)c1
[4]
  AC50: 14.1 µM (inconclusive)

## COC(=O)c1ccc(CNC(=O)COC(=O)/C=C/c2ccc(O)c(OC)c2)cc1
[3]
  IC50: 44.4 µM (active)

## COc1cc(/C=C/C(=O)OCC(=O)N2CCCc3ccccc32)ccc1O
[3]
  IC50: 36.1 µM (active)

## O=C(NC(C(=O)c1ccccc1)n1cnccc1=O)c1ccccc1 (stereo unspecified)
[11]
  AC50: 2.82 µM (inconclusive)
[4]
  AC50: 14.1 µM (inconclusive)
[5]
  AC50: 8.91 µM (inconclusive)

## CC(Sc1nnc(Cc2cccs2)n1C1CCCCC1)C(N)=O (stereo unspecified)
[4]
  AC50: 3.98 µM (inconclusive)

## CCCCCCCCc1c(O)nc(-n2[nH]c(C)c(CCO)c2=O)[nH]c1=O
[1]
  AC50: 47.4 µM (active)
[2]
  EC50: 96.8 µM (active)

## Cc1cc(=O)n(CCCc2ccccc2)[nH]1
[1]
  AC50: 2.4 µM (active)
[2]
  EC50: 2.23 µM (active)

## CC1(C)OC(=O)C(/C=N/c2cccc(O)c2)=C(O)O1
[4]
  AC50: 31.6 µM (inconclusive)

## Cc1nc2ccccc2nc1N/N=C/c1ccc(O)cc1
[3]
  IC50: 29.2 µM (active)

## COc1cc2oc(-c3ccc(O)cc3)cc(=O)c2c(OC)c1O
[3]
  IC50: 18.2 µM (active)
